This note sets out measurements from ChEMBL document CHEMBL1130463, “Chemoenzymatic synthesis and characterization of a new type of carbohydrate-based cationic antimicrobial agents” (1997).

Common to all, as to format: functional
The subject of one assay is Micrococcus luteus. As to the kind of experiment: Minimum inhibitory concentration required for the inhibition of Micrococcus luteus.
For another assay, the system named is Vibrio alginolyticus. As to the kind of experiment: Minimum inhibitory concentration required for the inhibition of Vibrio alginolyticus.
In another assay the test system is Fusarium oxysporum. The experiment in a line: Minimum inhibitory concentration required for the inhibition of Fusarium oxysporum.

Regarding `CCCCCCCCCCCCCCCCCCCCCCCCCCCCCC(=O)OC[C@@H]1OC(OCCC[N+](C)(C)C)[C@@H](O)[C@@H](O)[C@@H]1O.[I-]` (some centres undefined), the MIC in the assay with Micrococcus luteus amounted to 1000 µg/mL; against Vibrio alginolyticus, 2000 µg/mL.

Consider `CCCCCCCCCCCCCCCCCCCCCCCCCC(=O)OC[C@@H]1OC(OCCC[N+](C)(C)C)[C@@H](O)[C@@H](O)[C@@H]1O.[I-]` (some centres undefined), for which the values for the MIC in the assay with Micrococcus luteus and with Vibrio alginolyticus were 50 µg/mL and 2000 µg/mL, respectively.

As to `CCCCCCCCCCCCCCCCCCCCCC(=O)OC[C@@H]1OC(OCCC[N+](C)(C)C)[C@@H](O)[C@@H](O)[C@@H]1O.[I-]` (some centres undefined), the MIC in the assay on Fusarium oxysporum is 500 µg/mL; in the assay with Micrococcus luteus it was 10 µg/mL; with Vibrio alginolyticus, 500 µg/mL.

For the compound `CCCCCCCCCCCCCCCCCC(=O)OC[C@@H]1OC(OCCC[N+](C)(C)C)[C@@H](O)[C@@H](O)[C@@H]1O.[I-]` (some centres undefined), the minimum inhibitory concentration (MIC) in the assay with Micrococcus luteus and in the assay on Vibrio alginolyticus was 2000 µg/mL throughout.

As a reminder, the MIC is the least concentration at which growth counts as inhibited. A lower MIC goes with inhibition by little substance.
